# According to ChEMBL document CHEMBL1157969, “Stellettin A induces oxidative stress and apoptosis in HL-60 human leukemia and LNCaP prostate cancer cell lines” (J Nat Prod, 2006):
# Active and inactive are the calls of the source. The calls are words filed in the database; no cut-off is given here.
# What was measured:
# HL-60 [1] = assay: Induction of apoptosis in human HL60 cells assessed as apoptotic bodies at 4 ug/mL after 24 hrs by fluorescence microscopy; assay type: functional
# HL-60 [2] = assay: Induction of apoptosis in human HL60 cells assessed as mean fluorescence intensity of mitochondrial membrane potential dissipation at 1 ug/mL after 24 hrs; assay type: functional
# HL-60 [3] = assay: Induction of apoptosis in human HL60 cells assessed as increase in transcription of NOX1 after 5 hrs by immunoblot; assay type: functional, cell-based
# HL-60 [4] = assay: Induction of apoptosis in human HL60 cells assessed as mean fluorescence intensity of mitochondrial membrane potential dissipation at 4 ug/mL after 24 hrs; assay type: functional
# LNCaP [5] = assay: Induction of apoptosis in human LNCaP cells assessed as increase in transcription of NADPH oxidase component p22phox after 5 hrs by immunoblot; assay type: functional, cell-based
# HL-60 [6] = assay: Induction of apoptosis in human HL60 cells at 4 ug/mL after 24 hrs in presence of sense caspase-3 oligonucleotide; assay type: functional
# HL-60 [7] = assay: Induction of apoptosis in human HL60 cells assessed as increase in transcription of NADPH oxidase component p22phox after 5 hrs by immunoblot; assay type: functional, cell-based
# HL-60 [8] = assay: Induction of apoptosis in human HL60 cells assessed as increase in transcription of NOX5 after 5 hrs by immunoblot; assay type: functional, cell-based
# LNCaP [9] = assay: Induction of apoptosis in human LNCaP cells assessed as decrease in Bcl-2 levels at 20 […] after 24 hrs by immunoblot; assay type: functional, cell-based
# LNCaP [10] = assay: Induction of apoptosis in human LNCaP cells assessed as mean fluorescence intensity of mitochondrial membrane potential dissipation at 20 ug/mL after 24 hrs; assay type: functional
# HL-60 [11] = assay: Induction of apoptosis in human HL60 cells assessed as increase in transcription of NADPH oxidase component p47phox after 5 hrs by immunoblot; assay type: functional, cell-based
# LNCaP [12] = assay: Induction of apoptosis in human LNCaP cells assessed as increase in transcription of NADPH oxidase component p47phox after 5 hrs by immunoblot; assay type: functional, cell-based
# HL-60 [13] = assay: Induction of apoptosis in human HL60 cells assessed as increase in transcription of NADPH oxidase component p67phox after 5 hrs by immunoblot; assay type: functional, cell-based
# HL-60 [14] = assay: Induction of apoptosis in human HL60 cells assessed as increase in transcription of NOX4 after 5 hrs by immunoblot; assay type: functional, cell-based
# HL-60 [15] = assay: Induction of apoptosis in human HL60 cells assessed as increase in transcription of NADPH oxidase component gp91phox after 5 hrs by immunoblot; assay type: functional, cell-based
# HL-60 [16] = assay: Induction of apoptosis in human HL60 cells assessed as increase in caspase-3 levels at 1 […] after 24 hrs by immunoblot; assay type: functional, cell-based
# LNCaP [17] = assay: Induction of apoptosis in human LNCaP cells assessed as ROS generation; assay type: functional, cell-based
# LNCaP [18] = assay: Induction of apoptosis in human LNCaP cells assessed as apoptotic bodies at 20 ug/mL after 24 hrs by fluorescence microscopy; assay type: functional
# LNCaP [19] = assay: Induction of apoptosis in human LNCaP cells assessed as increase in transcription of NADPH oxidase component gp91phox after 5 hrs by immunoblot; assay type: functional, cell-based
# LNCaP [20] = assay: Cytotoxicity against human LNCaP cells after 48 hrs by MTT assay; assay type: functional, cell-based
# HL-60 [21] = assay: Induction of apoptosis in human HL60 cells at 4 ug/mL after 24 hrs in presence of antisense caspase-3 oligonucleotide; assay type: functional, cell-based
# HL-60 [22] = assay: Induction of apoptosis in human HL60 cells assessed as decrease in Bcl-2 levels at 1 […] after 24 hrs by immunoblot; assay type: functional, cell-based
# LNCaP [23] = assay: Induction of apoptosis in human LNCaP cells assessed as increase in transcription of NADPH oxidase component p67phox after 5 hrs by immunoblot; assay type: functional, cell-based
# HL-60 [24] = assay: Induction of apoptosis in human HL60 cells assessed as increase in FasL levels after 24 hrs by immunoblot; assay type: functional, cell-based
# LNCaP [25] = assay: Induction of apoptosis in human LNCaP cells assessed as increase in caspase-3 levels at 20 […] after 24 hrs by immunoblot; assay type: functional, cell-based
# LNCaP [26] = assay: Induction of apoptosis in human LNCaP cells assessed as increase in FasL levels after 24 hrs by immunoblot; assay type: functional, cell-based
# HL-60 [27] = assay: Cytotoxicity against human HL60 cells after 48 hrs by MTT assay; assay type: functional, cell-based; details: HL-60, 48 h
structure (smiles),measurement,setting,value
C\C(=C/C=C/C(C)=C1/C(=O)C[C@H]2[C@@]3(C)CCC(=O)C(C)(C)[C@@H]3CC[C@]12C)c1ccc(C)c(=O)o1 [STELLETIN A],Activity,HL-60 [1],56%
same,Activity,HL-60 [2],23.28
same,Activity,HL-60 [3],inactive
same,Activity,HL-60 [4],3.09
same,Activity,LNCaP [5],inactive
same,Activity,HL-60 [6],51%
same,Activity,HL-60 [7],Dose-dependent effect
same,Activity,HL-60 [8],inactive
same,Activity,LNCaP [9],inactive
same,Activity,LNCaP [10],38.82
same,Activity,HL-60 [11],Dose-dependent effect
same,Activity,LNCaP [12],inactive
same,Activity,HL-60 [13],Dose-dependent effect
same,Activity,HL-60 [14],inactive
same,Activity,HL-60 [15],Dose-dependent effect
same,Activity,HL-60 [16],Active
same,Activity,LNCaP [17],Active
same,Activity,LNCaP [18],<10%
same,Activity,LNCaP [19],inactive
same,IC50,LNCaP [20],120 µg/mL
same,Activity,HL-60 [21],inactive
same,Activity,HL-60 [22],Active
same,Activity,LNCaP [23],inactive
same,Activity,HL-60 [24],Dose-dependent effect
same,Activity,LNCaP [25],inactive
same,Activity,LNCaP [26],Dose-dependent effect
same,IC50,HL-60 [27],0.4 µg/mL
